From EP4596570A1, “SRC INHIBITORS AND USES THEREOF” (Universitat de Barcelona, priority 2024, dated 2025) come the findings set out here.

“Also recorded” adds a separate entry of the source.

Holding throughout (assay type): cell-based, human
Series [1] relates to SW620-src colorectal cancer cells. Nature of the series: Cell viability assay (MTT). To be noted: 72h, varying concentrations, much higher than those used in biological activity assays, Fig. 13. The method, then: (§1) SW620-src colorectal cancer cells were a kind gift of Dr. Serge Roche group. These cells have been stably transfected with human Src as described in Aponte, E., et al. (2021). "Regulation of Src tumor activity by its N-terminal intrinsically disordered region." Oncogene, 41: 960-970.. SW620-src colorectal cancer cells were grown in DMEM supplemented with 10% FBS (Gibco 10500-064), 1% GlutaMAX (Gibco 35050038) 1% P/S (Corning 30-002-CI). Cell lines were grown at 37°C with an atmosphere of 95% air, 5% CO2. All the reagents used during cell culture procedures were heated to 37°C in a water bath before its use. Before each assay, the absence of mycoplasma was tested according to a previously described protocol (Molla Kazemiha, V., et al. (2009). "PCR-based detection and eradication of mycoplasmal infections from various mammalian cell lines: a local experience." Cytotechnology 61(3): 117-124).
Cell viability was measured by MTT assay as described before (Kamiloglu, S., et al. (2020). "Guidelines for cell viability assays." Food Frontiers 1(3): 332-349).. […]
SW620-src cells were seeded into 96-well plates containing 100 µL of the growth medium at a density of 10000 cells/well for and cultured for one day. […] Afterwards, the plates were read under 570/690 nm wavelengths by plate reader (Synergy HTX, Biotek).

Series [2] has the same test system. Nature of the series: Wound healing assay (scratch, cell migration). To be noted: Src transformed SW620 cells, 24h after scratch; Fig. 12. The procedure:
as §1, with “Before each assay, the absence of mycoplasma was tested according to a previously described protocol (Molla Kazemiha, V., et al. (2009). "PCR-based detection and eradication of mycoplasmal infections from various mammalian cell lines: a local experience." Cytotechnology 61(3): 117-124).” left out
Cells were plated into 24-well plate at density of 500,000 cells/well and were cultured until they reach a 100% confluence. […] Each well was photographed in the same site to quantify cell migration after 24 hours. […] The obtained images were analyzed by Imaged software (Schindelin, J., et al. (2012). "Fiji: an open-source platform for biological-image analysis." Nature Methods 9(7): 676-682) using the MRI wound healing tool plugin (Suarez-Arnedo, A., et al. (2020). "An image J plugin for the high throughput image analysis of in vitro scratch wound healing assays." PLOS ONE 15(7): e0232565) . […]

For series [3] the test system is unchanged. Nature of the series: Soft agar colony formation assay. To be noted: Src transformed SW620 colorectal cancer cells, 5 µM of Drugs, 3 weeks, colonies with >50 cells counted; Fig. 11. The method, then:
as §1
Cells were plated at density of 10,000 per well in 24-well plates in 0.3% soft agar on top of a base layer of 0.7% agar. The cells were treated with 5 µM of Drugs, and the plates were incubated for 3 weeks, replacing the media every week. […] These experiments were repeated twice with 4 replicates per group, and only colonies with >50 cells were counted.

As for `COC(=O)N[C@@H](CO)C(=O)N[C@@H](CC(C)C)C(=O)N[C@@H](CCC(=O)O)C(=O)N1CCC[C@H]1c1cn(-c2ccc(-c3ccc(-n4cc([C@@H]5CCCN5C(=O)[C@H](CCC(=O)O)NC(=O)[C@H](CC(C)C)NC(=O)[C@H](CO)NC(=O)OC)nn4)cc3)cc2)nn1` [SLE-Me, Moc-Ser-Leu-Glu-1-Glu-Leu-Ser-Moc], the cell viability entry in series [1] is “do not significantly affect cell viability”.

Turning to `COC(=O)NC(C(=O)N1CCC[C@H]1c1cn(-c2ccc(-c3ccc(-n4cc([C@@H]5CCCN5C(=O)C(NC(=O)OC)C(C)C)nn4)cc3)cc2)nn1)C(C)C` (stereo partly drawn) [V-Me, Moc-Val-1-Val-Moc], the “migration of cancer cells (scratch wound healing)” value in series [2] is “significantly reduced; also recorded: significantly impair”. The colony formation entry in series [3] was “significantly reduced; also recorded: significantly decrease”. Further, the cell viability entry in series [1] was “do not significantly affect cell viability”.

For the compound Moc-Leu-Lys-1-Lys-Leu-Moc [LK-Me], the “migration of cancer cells (scratch wound healing)” value in series [2] was “does not show significant biological activity; also recorded: no effect”. The colony formation entry in series [3] is listed as “does not show significant biological activity; also recorded: no effect”.
